Experimental findings from patent US20150328198A1, “METHODS OF TREATING METHICILLIN-RESISTANT STAPHYLOCOCCUS AUREUS (MRSA) USING PPAR-GAMMA AGONISTS” (priority 2014, published 2015) are described below.

This assay relates to MRSA. Description: murine MRSA skin and soft tissue infection (SSTI) model. The class given is in vivo, mice. The text has this: Peroxisome Proliferator Activator Receptor-γ (PPAR-γ) is a nuclear receptor that inhibits inflammation and redirects macrophages towards an M2 phenotype by driving Arg-1, Scd-1, SSAT and fatty acid synthesis gene expression. PPAR-γ is therefore involved in the development of adipocytes as well as M2-MΦs.

Molecules are shown by their SMILES.

For `O=C(Nc1ccccc1)c1cc([N+](=O)[O-])ccc1Cl` [GW9662], where the note is “day 12”, the “number of viable bacteria in wounds/abscesses” value is recorded as “greatly increased”. Under “mouse, in vivo”, the “resolution of MRSA SSTIs” value is “non-resolving”. As to `CCc1ccc(CCOc2ccc(CC3SC(=O)NC3=O)cc2)nc1` (centres unmarked) [Pioglitazone], the “reduction of average time to healing” value (mouse, in vivo) is on record as approximately 5 days. In the case of `CN(CCOc1ccc(CC2SC(=O)NC2=O)cc1)c1ccccn1` (centres unmarked) [Rosiglitazone], the “beneficial effects of treatment in PPAR-γ-/- mice” value (mice lacking myeloid PPAR-γ) is “no effect”. Also, for the setting “mouse, in vivo”, the “reduction of average time to healing” value is reported as approximately 5 days.
